From the NIST ThermoML archive (doi:10.1021/acs.jced.8b00425)
± gives the expanded uncertainty stated by the source.

What was measured:
[1] = Crystal; DSC
[2] = Molar enthalpy of transition or fusion; conditions: Crystal; DSC

Triple point temperature [1]: 555.66 ± 0.88 K
Molar enthalpy of transition or fusion [2]: 28.8 ± 0.74 kJ/mol
Structure (SMILES): O=c1[nH]cc(F)c(=O)[nH]1 [5-fluoro-2,4(1H,3H)-pyrimidinedione]
